Results taken from article PMC5808360, “Neutral Porphyrin Derivative Exerts Anticancer Activity by Targeting Cellular Topoisomerase I (Top1) and Promotes Apoptotic Cell Death without Stabilizing Top1-DNA Cleavage Complexes” (Journal of Medicinal Chemistry, 2017).
pIC50: −log10 of the molar value.

Assays:
[1] = system: MCF7 cells transfected with Top1 or Ctr siRNA; assay: Cell survival (MTT) assay in MCF7 cells transfected with Top1 or control siRNA; assay type: cell-based, human
Experimental: To further confirm that Top1 is the cellular target for compound 8 mediated cytotoxicity, we have performed cytotoxicity assays in siRNA mediated Top1 knockdown cells (Figure 6G, inset).
(§1) Cell survival was assessed by 3-(4,5-dimethylthiazol-2-yl)-2,5-diphenyltetrazolium bromide (MTT) assay as discussed previously.[6] The percent inhibition of viability for each concentration of the compounds was calculated with respect to the control, and IC50 values were estimated.
Transfections were performed as described previously.[40] In brief, cells (1.5 × 10^5) were transfected with control siRNA or 40 nM Top1 siRNA (Qiagen) using oligofectamine (Invitrogen) according to the manufacturer’s protocol.

[2] = Cell survival (MTT) assay, HEK293; assay type: cell-based; conditions: human, HEK293 cells (noncancerous embryonic kidney), read-out: IC50 cytotoxicity
Experimental: Compound 8 was investigated for its cytotoxicity in the cancer cell lines from different tissue origin,[6],[41] as well as in the noncancerous human embryonic kidney cell lines (HEK293) and mouse embryonic fibroblasts (MEFs). […] The MCF7 breast cancer cell lines were most susceptible to compound 8.
as §1

[3] = biological target: T1, recombinant Top1 (Homo sapiens, UniProt P11387); assay: Dilution assay with recombinant Top1 (reversibility of inhibition); assay type: biochemical
T1 construct: made in house; host or cells: Sf-9 insect cells (recombinant baculovirus, gift of Prof. James J. Champoux)
T1 sequence (P11387 1-765): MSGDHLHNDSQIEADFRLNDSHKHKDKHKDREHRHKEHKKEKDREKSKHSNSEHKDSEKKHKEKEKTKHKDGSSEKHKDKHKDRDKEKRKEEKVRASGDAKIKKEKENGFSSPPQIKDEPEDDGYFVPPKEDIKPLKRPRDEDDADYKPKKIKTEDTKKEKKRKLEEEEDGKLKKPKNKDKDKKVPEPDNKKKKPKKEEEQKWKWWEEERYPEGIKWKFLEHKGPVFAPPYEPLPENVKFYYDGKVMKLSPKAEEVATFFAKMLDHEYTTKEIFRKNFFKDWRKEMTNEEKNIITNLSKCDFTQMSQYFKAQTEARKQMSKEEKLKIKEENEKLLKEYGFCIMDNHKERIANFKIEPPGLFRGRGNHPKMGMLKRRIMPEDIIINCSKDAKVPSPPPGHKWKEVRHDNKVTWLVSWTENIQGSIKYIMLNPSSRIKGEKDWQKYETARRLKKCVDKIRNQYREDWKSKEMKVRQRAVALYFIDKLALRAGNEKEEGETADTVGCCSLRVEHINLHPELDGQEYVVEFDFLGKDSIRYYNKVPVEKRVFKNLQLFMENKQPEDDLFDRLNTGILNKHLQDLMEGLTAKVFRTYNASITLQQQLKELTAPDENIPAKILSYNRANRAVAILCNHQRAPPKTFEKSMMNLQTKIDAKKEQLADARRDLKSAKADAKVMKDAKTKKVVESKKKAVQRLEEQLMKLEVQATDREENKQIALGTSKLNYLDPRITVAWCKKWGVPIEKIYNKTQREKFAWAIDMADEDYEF
Excerpt: To further investigate the nature of binding of compound 8 with Top1 (reversible vs irreversible),[12],[14] we performed dilution assay with recombinant Top1.

inhibition at 1 µM ([3]; Top1 preincubated with 1 μM compound, read-out: Inhibition of enzyme before dilution): 90 to 99%
Relief of Top1 inhibition upon dilution ([3]; at 40-fold dilution (final 0.025 μM)): Complete relief of Top1 inhibition
SMILES: CN(C)c1ccc(-c2c3nc(c(-c4ccc(N(C)C)cc4)c4ccc([nH]4)c(-c4ccc(C(=O)O)cc4)c4nc(c(-c5ccc(C(=O)O)cc5)c5ccc2[nH]5)C=C4)C=C3)cc1 [Compound 8, 5,10-Bis(4-carboxyphenyl)-15,20-bis(4-dimethylaminophenyl)porphyrin]
Cytotoxicity in Top1 knockdown cells compared to Top1 proficient cells [1]: reduced cytotoxicity
pIC50 [2]: < 5.00
